Patent US20090075867A1, “Triazine compounds and compositions thereof for the treatment of cancers” (priority 2005, published 2009)
Read-outs that look alike come from different tables or passages of the source.

Tests used:
[1] = test system: PC-3, human prostate carcinoma cell; test: In vitro cytotoxicity (MTT) on PC-3; format: cell-based
Protocol: (§1) This assay was performed to determine the effect of compounds of the present invention on cell cytotoxicity. Cells were incubated in presence or absence of compounds in their respective conditioned media. […] The supernatant was discarded and 100 μl of dimethylsulfoxide (DMSO) was added. Absorbance was read at […] with an ELISA Tecan SUNRISE™ plate reader. The control group consisted of cells without compounds and is referred to as 100% of viable cells. IC50 was determined using PRISM® software.
(§2) The predictive utility of cell-based cytotoxicity assays to assess the potential in vivo anticancer activity of compounds with selected cancer cell lines is well established in the art and the use of whole cells, instead of isolated protein receptors or enzymes, provides a more reliable determination of activity. See, for example, Paull et al. J. Natl. Cancer Inst. 81:1088-1092 (1989); Monks et al. J. Natl. Cancer Inst. 83:757-766 (1991); Bandes et al. J. Natl. Cancer Inst. 86:770-775 (1994); and Kamate et al. Intl. J. Cancer 100:571-579 (2002).

[2] = test system: P815, murine mastocytoma cell; test: In vitro cytotoxicity (MTT) on P815; format: cell-based; details: Mus musculus
Protocol: as §1, §2

[3] = test system: NHDF, Normal Human Dermal Fibroblast; test: In vitro cytotoxicity (MTT) on NHDF; format: cell-based
Protocol: as §1, §2

B16F10 lung metastases = format: in vivo; details: for inhibition of the number of tumor nodules in lungs: FIG. 3, 50 mg/kg i.v. on day -3, -2, -1, 3, 5 and 7, p<0.001; for reduction of the number of tumor nodules: FIG. 4
Protocol: Female 6-8-week old C57BL/6 mice were injected intravenously on day 0 with 1-2.5×10^5 B16F10 melanoma cells from ATCC (source of cell culture, Dr. I. J. Fidler). B16F10 melanoma cells are a highly metastatic cell line which preferentially forms nodules in the lungs. Cells were cultured in DMEM supplemented with 10% fetal bovine serum. […] Fourteen days after inoculation, mice were sacrificed and their lungs were removed, rinsed in PBS, and placed in Bouin's fixative. The number of metastatic nodules (black colonies) on the surface of the lungs were counted.

[4] = test system: B16F10, murine melanoma cell; test: In vitro cytotoxicity (MTT) on B16F10; format: cell-based; details: Mus musculus, B16-F10
Protocol: as §1, §2

[5] = test system: CAKI-2, human kidney cell; test: In vitro cytotoxicity (MTT) on CAKI-2; format: cell-based
Protocol: as §1, §2

DA-3 breast tumors = test: Antitumor effects on a primary DA-3 breast tumor; format: in vivo, BALB/c mice
Protocol: (§3) The syngeneic tumor DMBA3 (DA-3, breast carcinoma model) arose from a preneoplastic lesion treated with 7,12-dimethylbenzanthracene in female BALB/c mice. DA-3 cells were grown as monolayer cultures in plastic flasks in RPMI-1640 containing 0.1 mM nonessential amino acids, 0.1 μM sodium pyruvate, 2 mM L-glutamine. This was further supplemented with 50 μM 2-mercaptoethanol and 10% fetal bovine serum. The DA-3 tumors were serially passage in vivo by intradermal inoculation of 5×10^5 viable tumor cells to produce localized tumors in 6- to 8-week old BALB/c mice. The animals were then serially monitored by manual palpation for evidence of tumor. Mice were treated at day 11, 18 and 25 with cyclophosphamide (100 mg/kg) and at day 11, 12, 13, 15, 18, 20, 22, 25, 27 and 29 with compound 1, 2, 3 or 8 (50 mg/kg). Mice were sacrificed at day 43. Serial tumor volume was obtained by bi-dimensional diameter measurements with calipers, using the formula 0.4 (a×b^2) where “a” was the major tumor diameter and “b” the minor perpendicular diameter. […] The National Cancer Institute (USA) defines the product as effective if T/C is ≦40%.
In other trials, mice were treated with one intratumoral injection of compound 2 or cyclophosphamide (three doses) or intratumoral injection of compound 2 in combination with cyclophosphamide.

Hep-G2, human liver cell = test: In vitro cytotoxicity (MTT) on Hep-G2; format: cell-based
Protocol: as §1, §2

DA-3 = test: In vitro cytotoxicity (MTT) on DA-3; format: cell-based, BALB/c mice; details: Mus musculus
Protocol: as §1, §2, §3

B16F10 primary tumors = test: Antitumor effects on a primary B16F10 melanoma tumor; format: in vivo, C57BL/6 mice; details: 50 mg/kg i.v. on day 14, 16 and 18
Protocol: Female 6-8 week old C57BL/6 mice were injected intradermally on day 0 with 3.75×10^4 B16F10 melanoma cells from ATCC (source of cell culture, Dr. I. J. Fidler). On day 14, tumors reached […] and animals were randomized for treatments. Animals were then injected i.v. with saline (negative control) or compounds (50 mg/kg) on day 14, 16 and 18 or 10 mg/kg doxorubicin (Dox, positive control) on day 14. Mice were sacrificed on day 29. Body weight and tumor volume were recorded. Serial tumor volume was obtained by bi-dimensional diameter measurements with calipers, using the formula 0.4 (a×b^2) where “a” was the major tumor diameter and “b” the minor perpendicular diameter.
T/C is calculated as (Treated tumor volume/Control tumor volume)×100%. Compound 2 induced a weak reduction (T/C around 70%) of the tumor volume compared to the control.

[6] = test system: PBML, Peripheral Blood Mononuclear Leukocytes; test: In vitro cytotoxicity (MTT) on PBML; format: cell-based; details: Leukocyte
Protocol: as §1, §2

[7] = FIG. 8, combination of cyclophosphamide and intratumoral injection of compound 2

| SMILES | IC50 ([1]; 24-hour cell culture) [µM] | IC50 ([1]; 72-hour cell culture) [µM] | IC50 ([2]; 24-hour cell culture) [µM] | IC50 ([2]; 72-hour cell culture) [µM] | IC50 ([3]; 24-hour cell culture) [µM] | IC50 ([3]; 72-hour cell culture) [µM] | inhibition of the number of tumor nodules in lungs (B16F10 lung metastases) | IC50 ([4]; 24-hour cell culture) [µM] | IC50 (DA-3; 24-hour cell culture) [µM] | IC50 ([6]; 24-hour cell culture) [µM] | IC50 ([6]; 72-hour cell culture) [µM] | other results |
| --- | --- | --- | --- | --- | --- | --- | --- | --- | --- | --- | --- | --- |
| Nc1ccc(CCNc2nc(Nc3ccc(CCNc4nc(NCCO)nc(Nc5cccc(N)c5)n4)cc3)nc(Nc3cccc(N)c3)n2)cc1 [Compound 2] | 2.3 | 4 | 66.5 | 2.2 | > 100 | 16 | significant inhibition | 1 | 2 | > 100 | 10 | reduction of the number of tumor nodules (B16F10 lung metastases; compound 2 in combination with doxorubicin (1 mg/kg)): 95%; reduction of the number of tumor nodules (B16F10 lung metastases; used alone, compound 50 mg/kg i.v., doxorubicin 1 mg/kg): 87%; IC50 ([4]; 72-hour cell culture): 1 µM; IC50 ([5]; 24-hour cell culture): > 40 µM; IC50 ([5]; 72-hour cell culture): > 40 µM; T/C, inhibition of tumor volume (DA-3 breast tumors; [7]): 10%; total tumor regressions at day 46 (DA-3 breast tumors; [7]): four; total tumor regression at day 46 (DA-3 breast tumors; FIG. 8, one intratumoral injection of compound 2 alone): one; IC50 (Hep-G2, human liver cell; HepG2, 24-hour cell culture): > 40 µM; IC50 (Hep-G2, human liver cell; HepG2, 72-hour cell culture): > 40 µM; IC50 (DA-3; 72-hour cell culture): 1.9 µM; T/C (Treated tumor volume/Control tumor volume) (B16F10 primary tumors; FIG. 1 trial): around 70% |
| Nc1ccc(CCNc2nc(NCCCCO)nc(Nc3cccc(N)c3)n2)cc1 [Compound 8] | 94 | 100 | > 100 | 92 | > 100 | > 100 | significant inhibition | 33 | 85 | > 100 | > 100 | inhibition of the tumor volume (DA-3 breast tumors; FIG. 6, 50 mg/kg): All compounds except compound 8 induced a significant inhibition; T/C (Treated tumor volume/Control tumor volume) (B16F10 primary tumors; FIG. 2 trial): around 70% |
